# Read-outs that look alike come from different tables or passages of the source.
# Tests used:
# FASN enzyme = FASN enzyme (Homo sapiens, UniProt P49327); assay: Enzymatic Assay for FASN Inhibitors; assay type: biochemical
# Method in brief: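 40 nM FASN preincubated with compound 60 min at 25° C in HEPES pH 7.3 buffer with 0.04% Triton X-100. Then 20 μM acetyl-CoA, 60 μM malonyl-CoA and 100 μM NADPH added for 90 min, quenched with CPM thiol probe; fluorescence 360/530 nm, IC50 by four-parameter fit.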
# PC3 cells = assay: Cell Proliferation Assays for FASN Inhibitors (PC3 cells, MTT); assay type: cell-based; conditions: Homo sapiens, PC-3, 96 h, read-out: IC50 (uM) < 0.5, 10% lipid reduced serum, 4 days, Table 3-1
# Protocol: The effects of the FASN inhibitors on cultured cancer cell proliferation were studies with cell proliferation assays. PC3 cells were maintained at standard culture media (F12K media supplemented with 10% fetal bovine serum, 1×MEM nonessential amino acid and 1× penicillin/streptomycin). 2000-3000 cells/100 μL/well was seeded in a 96-well clear culture plate. The cells were incubated overnight in 5% CO2 at 37° C. for attachment. Cell media were removed and replaced with F12K media containing 10% lipid reduced serum and compound. The final DMSO concentration is 0.1%. The cells were maintained in 5% CO2 at 37° C. for 4 days. The viability of cells was determined by MTT assays. The IC50 of a given compound was calculated by fitting the dose response curve with a four parameter logistic equation.
# [1] = FASN enzymatic assay, Table 2-2
# [2] = FASN enzymatic assay, Table 2-3
# FASN enzyme, sequence (P49327 whole entry): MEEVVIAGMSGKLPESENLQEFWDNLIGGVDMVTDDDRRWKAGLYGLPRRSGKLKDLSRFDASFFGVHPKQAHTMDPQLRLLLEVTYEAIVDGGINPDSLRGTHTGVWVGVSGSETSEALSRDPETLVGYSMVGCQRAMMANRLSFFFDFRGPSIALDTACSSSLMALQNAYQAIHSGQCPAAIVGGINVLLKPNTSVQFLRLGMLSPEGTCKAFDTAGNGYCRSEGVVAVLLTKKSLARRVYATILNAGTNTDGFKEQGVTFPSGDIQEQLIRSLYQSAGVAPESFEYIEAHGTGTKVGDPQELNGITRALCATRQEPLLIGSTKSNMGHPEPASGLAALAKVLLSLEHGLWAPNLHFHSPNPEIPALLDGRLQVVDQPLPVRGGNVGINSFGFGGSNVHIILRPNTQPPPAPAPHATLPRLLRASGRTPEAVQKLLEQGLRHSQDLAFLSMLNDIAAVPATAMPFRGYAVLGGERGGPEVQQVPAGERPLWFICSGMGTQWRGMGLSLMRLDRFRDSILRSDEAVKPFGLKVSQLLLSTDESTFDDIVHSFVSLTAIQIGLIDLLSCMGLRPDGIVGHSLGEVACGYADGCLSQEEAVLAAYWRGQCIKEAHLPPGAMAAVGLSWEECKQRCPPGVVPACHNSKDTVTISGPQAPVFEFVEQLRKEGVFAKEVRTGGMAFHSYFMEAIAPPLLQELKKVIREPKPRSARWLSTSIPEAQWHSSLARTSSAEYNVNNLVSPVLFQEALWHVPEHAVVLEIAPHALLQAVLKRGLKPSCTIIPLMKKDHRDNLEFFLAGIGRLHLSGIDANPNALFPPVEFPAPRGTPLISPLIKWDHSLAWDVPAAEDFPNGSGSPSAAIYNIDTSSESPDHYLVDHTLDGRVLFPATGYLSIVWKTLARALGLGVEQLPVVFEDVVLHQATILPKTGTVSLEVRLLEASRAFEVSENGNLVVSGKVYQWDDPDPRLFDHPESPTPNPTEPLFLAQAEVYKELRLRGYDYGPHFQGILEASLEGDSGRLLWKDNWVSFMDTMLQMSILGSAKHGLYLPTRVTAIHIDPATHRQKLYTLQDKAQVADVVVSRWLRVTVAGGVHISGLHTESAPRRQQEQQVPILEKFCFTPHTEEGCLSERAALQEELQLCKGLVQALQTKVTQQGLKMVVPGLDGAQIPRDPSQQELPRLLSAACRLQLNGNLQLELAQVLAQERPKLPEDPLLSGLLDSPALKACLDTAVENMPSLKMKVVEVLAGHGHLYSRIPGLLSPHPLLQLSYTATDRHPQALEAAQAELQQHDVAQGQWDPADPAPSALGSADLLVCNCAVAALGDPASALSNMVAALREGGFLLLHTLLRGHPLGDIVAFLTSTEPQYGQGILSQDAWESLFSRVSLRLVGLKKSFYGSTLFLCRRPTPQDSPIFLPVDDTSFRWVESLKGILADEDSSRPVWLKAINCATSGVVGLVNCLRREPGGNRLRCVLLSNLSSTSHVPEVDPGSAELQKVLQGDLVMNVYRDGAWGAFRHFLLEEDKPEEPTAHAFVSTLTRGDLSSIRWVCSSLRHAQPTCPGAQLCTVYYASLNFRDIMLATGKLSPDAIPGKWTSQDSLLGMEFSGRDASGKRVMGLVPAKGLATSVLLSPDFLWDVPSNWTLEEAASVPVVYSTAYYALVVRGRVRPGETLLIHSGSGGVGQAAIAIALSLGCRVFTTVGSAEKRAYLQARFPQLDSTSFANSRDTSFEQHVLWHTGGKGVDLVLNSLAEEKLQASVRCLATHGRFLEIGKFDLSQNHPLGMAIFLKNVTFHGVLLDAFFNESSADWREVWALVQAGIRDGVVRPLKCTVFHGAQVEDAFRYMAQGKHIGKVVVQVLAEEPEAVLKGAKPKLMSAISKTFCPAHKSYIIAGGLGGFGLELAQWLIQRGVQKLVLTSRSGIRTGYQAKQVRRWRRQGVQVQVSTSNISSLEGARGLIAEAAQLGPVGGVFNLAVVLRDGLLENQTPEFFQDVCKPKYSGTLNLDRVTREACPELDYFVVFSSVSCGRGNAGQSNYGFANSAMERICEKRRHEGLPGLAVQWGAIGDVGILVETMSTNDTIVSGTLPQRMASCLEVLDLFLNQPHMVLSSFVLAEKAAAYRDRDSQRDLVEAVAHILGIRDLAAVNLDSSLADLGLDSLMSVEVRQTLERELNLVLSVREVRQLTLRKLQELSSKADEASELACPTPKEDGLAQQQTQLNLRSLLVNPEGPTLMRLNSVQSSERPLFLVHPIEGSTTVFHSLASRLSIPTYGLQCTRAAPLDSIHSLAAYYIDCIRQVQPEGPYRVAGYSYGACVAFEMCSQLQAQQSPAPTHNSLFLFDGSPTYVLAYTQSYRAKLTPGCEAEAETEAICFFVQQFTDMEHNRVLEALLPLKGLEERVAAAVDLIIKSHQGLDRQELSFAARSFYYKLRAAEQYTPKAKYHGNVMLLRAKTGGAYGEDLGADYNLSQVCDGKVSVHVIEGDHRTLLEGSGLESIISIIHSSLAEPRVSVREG
SMILES,IC50 (FASN enzyme) [nM],IC50 (PC3 cells) [µM],also measured
COc1ccc2cc(-c3ccc(C(=O)N4CCN(C(=O)C5(O)CC5)CC4)cc3)ccc2n1 [1-[(4-{[4-(2-methoxyquinolin-6-yl)phenyl]carbonyl}piperazin-1-yl)carbonyl]cyclopropan-1-ol],< 500,< 0.5,–
"O=C(c1ccc(-c2nc3ccccc3o2)cc1)N1CCN(C(=O)C2(O)CC2)CC1 [1-[(4-{[4-(1,3-benzoxazol-2-yl)phenyl]carbonyl}piperazin-1-yl)carbonyl]cyclopropan-1-ol]",< 500,< 0.5,–
"O=C(c1ccc(-c2cn3ccccc3n2)cc1Cl)N1CCN(C(=O)C2(O)CC2)CC1 [1-({4-[(2-chloro-4-{imidazo[1,2-a]pyridin-2-yl}phenyl)carbonyl]piperazin-1-yl}carbonyl)cyclopropan-1-ol]",< 500,< 0.5,–
COc1c(Cl)cccc1-c1ccc(C(=O)N2CCN(C(=O)C3(O)CC3)CC2)cc1 [1-[(4-{[4-(3-chloro-2-methoxyphenyl)phenyl]carbonyl}piperazin-1-yl)carbonyl]cyclopropan-1-ol],< 500,< 0.5,–
"O=C(c1ccc(-c2nc3cc(Cl)ccc3o2)cc1)N1CCN(C(=O)C2(O)CC2)CC1 [1-[(4-{[4-(5-chloro-1,3-benzoxazol-2-yl)phenyl]carbonyl}piperazin-1-yl)carbonyl]cyclopropan-1-ol]",< 500,< 0.5,–
O=C(c1ccc(-c2ccc3ncccc3c2)cc1F)N1CCN(C(=O)C2(O)CC2)CC1 [1-[(4-{[2-fluoro-4-(quinolin-6-yl)phenyl]carbonyl}piperazin-1-yl)carbonyl]cyclopropan-1-ol],< 500,< 0.5,–
"O=C(c1ccc(-c2ccc3ocnc3c2)cc1)N1CCN(C(=O)C2(O)CC2)CC1 [1-[(4-{[4-(1,3-benzoxazol-5-yl)phenyl]carbonyl}piperazin-1-yl)carbonyl]cyclopropan-1-ol]",< 500,< 0.5,–
O=C(c1ccc(-c2ccc3[nH]c(=O)ccc3c2)cc1)N1CCN(C(=O)C2(O)CC2)CC1,–,< 0.5,–
Cn1ncc2cc(-c3ccc(C(=O)N4CCN(C(=O)C5(O)CC5)CC4)cc3)ccc21 [1-[(4-{[4-(1-methyl-1H-indazol-5-yl)phenyl]carbonyl}piperazin-1-yl)carbonyl]cyclopropan-1-ol],< 500,–,–
O=C(c1ccc(-c2cccc(S(=O)(=O)C3CC3)c2)cc1F)N1CCN(C(=O)C2(O)CC2)CC1 [1-(4-{4-[3-(cyclopropanesulfonyl)phenyl]-2-fluorobenzoyl}piperazine-1-carbonyl)cyclopropan-1-ol],< 500,–,–
Cc1cccc(-c2ccc(C(=O)N3CCN(C(=O)C4(O)CC4)CC3)cc2)c1F [1-[(4-{[4-(2-fluoro-3-methylphenyl)phenyl]carbonyl}piperazin-1-yl)carbonyl]cyclopropan-1-ol],–,–,IC50 (FASN enzyme; [1]): 500 to 5000 nM
"O=C(c1ccc(-c2cccc3ocnc23)cc1)N1CCN(C(=O)C2(O)CC2)CC1 [1-[(4-{[4-(1,3-benzoxazol-4-yl)phenyl]carbonyl}piperazin-1-yl)carbonyl]cyclopropan-1-ol]",< 500,–,–
O=C(c1ccc(-c2cccc(N3CCCC3=O)c2)cc1)N1CCN(C(=O)C2(O)CC2)CC1 [1-(3-{4-[4-(1-hydroxycyclopropanecarbonyl)piperazine-1-carbonyl]phenyl}phenyl)pyrrolidin-2-one],< 500,–,–
"Nc1cc(-c2cccc(-c3ccc(C(=O)N4CCN(C(=O)C5(O)CC5)CC4)c(F)c3)c2)no1 [1-(4-{4-[3-(5-amino-1,2-oxazol-3-yl)phenyl]-2-fluorobenzoyl}piperazine-1-carbonyl)cyclopropan-1-ol]",< 500,–,–
Cc1cc2ccccc2n1-c1ccc(C(=O)N2CCN(C(=O)C3(O)CC3)CC2)c(F)c1 [1-{4-[2-fluoro-4-(2-methyl-1H-indol-1-yl)benzoyl]piperazine-1-carbonyl}cyclopropan-1-ol],< 500,–,–
O=C(c1ccc(-c2ccc(C(F)(F)F)nc2)cc1)N1CCN(C(=O)C2(O)CC2)CC1 [1-{[4-({4-[6-(trifluoromethyl)pyridin-3-yl]phenyl}carbonyl)piperazin-1-yl]carbonyl}cyclopropan-1-ol],–,–,IC50 (FASN enzyme; [2]): ≥ 5000 nM
Cc1ccc(F)c(-c2ccc(C(=O)N3CCN(C(=O)C4(O)CC4)CC3)cc2)c1 [1-[(4-{[4-(2-fluoro-5-methylphenyl)phenyl]carbonyl}piperazin-1-yl)carbonyl]cyclopropan-1-ol],–,–,IC50 (FASN enzyme; [1]): 500 to 5000 nM
C[C@@H]1CN(C(=O)c2ccc(-c3nc4ccc(F)cc4o3)cc2)C[C@H](C)N1C(=O)C1(O)CC1,< 500,–,–
Cn1cnc2cc(-c3ccc(C(=O)N4CCN(C(=O)C5(N)CCC5)CC4)cc3)ccc21,< 500,–,–
O=C(c1ccc(-c2cccc(OC(F)(F)F)c2F)cc1)N1CCN(C(=O)C2(O)CC2)CC1 [1-{[4-({4-[2-fluoro-3-(trifluoromethoxy)phenyl]phenyl}carbonyl)piperazin-1-yl]carbonyl}cyclopropan-1-ol],–,–,IC50 (FASN enzyme; [1]): 500 to 5000 nM
O=C(c1ccc(-c2ccc(Cl)cc2F)nc1)N1CCN(C(=O)C2(O)CC2)CC1 [1-[(4-{[6-(4-chloro-2-fluorophenyl)pyridin-3-yl]carbonyl}piperazin-1-yl)carbonyl]cyclopropan-1-ol],–,–,IC50 (FASN enzyme; [2]): ≥ 5000 nM
O=C(c1ccc(-c2ccc(Cl)cc2F)cc1)N1CCN(C(=O)C2(O)CC2)[C@H](CO)C1,–,–,IC50 (FASN enzyme; [2]): ≥ 5000 nM
O=C(c1ccc(-c2ccc3nncn3n2)cc1)N1CCN(C(=O)C2(O)CC2)CC1,–,–,IC50 (FASN enzyme; [1]): 500 to 5000 nM
O=C(c1ccc(-c2ccc(F)cc2C(F)(F)F)cc1)N1CCN(C(=O)C2(O)CC2)CC1 [1-{[4-({4-[4-fluoro-2-(trifluoromethyl)phenyl]phenyl}carbonyl)piperazin-1-yl]carbonyl}cyclopropan-1-ol],–,–,IC50 (FASN enzyme; [1]): 500 to 5000 nM

# Now from value to compound, other results behind:
IC50 (FASN enzyme) [nM],IC50 (PC3 cells) [µM],SMILES,also measured
–,< 0.5,COc1ccc(OC(F)(F)F)cc1-c1ccc(C(=O)N2CCN(C(=O)C3(O)CC3)CC2)cc1 [1-{[4-({4-[2-methoxy-5-(trifluoromethoxy)phenyl]phenyl}carbonyl)piperazin-1-yl]carbonyl}cyclopropan-1-ol],–
< 500,< 0.5,O=C(c1ccc(-c2ccc3cnccc3c2)cc1)N1CCN(C(=O)C2CCO2)CC1 (stereo not drawn) [6-[4-({4-[(oxetan-2-yl)carbonyl]piperazin-1-yl}carbonyl)phenyl]isoquinoline],–
< 500,–,O=C(c1ccc(-c2cccc(S(=O)(=O)NC3CC3)c2)cc1)N1CCN(C(=O)C2(O)CC2)CC1 [N-cyclopropyl-3-[4-({4-[(1-hydroxycyclopropyl)carbonyl]piperazin-1-yl}carbonyl)phenyl]benzene-1-sulfonamide],–
< 500,–,O=C(c1ccc(-c2cccc(NS(=O)(=O)C3CCOCC3)c2)cc1)N1CCN(C(=O)C2(O)CC2)CC1 [N-(3-{4-[4-(1-hydroxycyclopropanecarbonyl)piperazine-1-carbonyl]phenyl}phenyl)oxane-4-sulfonamide],–
< 500,–,"O=C(c1ccc(-c2ccc(Cl)cc2F)cc1)N1CCN(C(=O)C2(O)CC2)CC12CC2 [1-{4-[4-(4-chloro-2-fluorophenyl)benzoyl]-4,7-diazaspiro[2.5]octane-7-carbonyl}cyclopropan-1-ol]",–
< 500,–,O=C(c1ccc(-c2n[nH]c3c(F)cccc23)cc1)N1CCN(C(=O)C2(O)CC2)CC1 [1-{4-[4-(7-fluoro-1H-indazol-3-yl)benzoyl]piperazine-1-carbonyl}cyclopropan-1-ol],–
< 500,–,NC(=O)c1cc2cc(-c3ccc(C(=O)N4CCN(C(=O)C5(O)CC5)CC4)cc3)ccc2[nH]1 [5-[4-({4-[(1-hydroxycyclopropyl)carbonyl]piperazin-1-yl}carbonyl)phenyl]-1H-indole-2-carboxamide],–
